The source made the active and inactive calls. The rule behind the calls is not given here.
Key:
[1] = biological target: Sulfonylurea receptor 1, Kir6.2 (Homo sapiens) (UniProt Q14654+Q09428); experiment: Binding affinity to sulfonylurea receptor in pancreatic islet beta cell membranes
[2] = tested on: Escherichia coli; experiment: Antibacterial activity against Escherichia coli upto 50 ug/mL; assay type: functional, organism-based
[3] = Reduction of blood glucose level in alloxan induced diabetic mice at 200 mg/kg; assay type: functional, organism-based; design: dose 200 mg/kg; conditions: Mus musculus, target entry is the homologue from another species
[4] = tested on: Escherichia coli; experiment: Antibacterial activity against Escherichia coli; assay type: functional

COc1ccc2c(c1OC)CN1CCc3cc4c(cc3[C@@H]1C2)OCO4
Activity [1]: inactive | Activity [2]: inactive

COc1ccc2c(c1)C(=O)N(CCc1ccc(S(=O)(=O)NC(=O)NC3CCCCC3)cc1)C(=O)C2(C)C
Activity [3]: 162 mg/dL | Activity [1]: Active

COc1ccc2cc3[n+](cc2c1OC)CCc1cc(OC(C)=O)c(OC(C)=O)cc1-3
Activity [1]: inactive | Activity [2]: inactive

COc1cc2c(cc1OC)-c1cc3ccc(OC)c(OC)c3c[n+]1CC2
Activity [1]: inactive | Activity [2]: inactive

c1ccc(C[N+]23CCc4cc5c(cc4C2Cc2ccccc2C3)OCO5)cc1 (stereo unspecified)
Activity [1]: Active | Activity [2]: inactive

COc1ccc2c(c1OC)C[N+]1(C)CCc3cc4c(cc3C1C2)OCO4 (stereo unspecified)
Activity [1]: inactive | Activity [2]: inactive

CC[N+]12CCc3cc4c(cc3C1Cc1ccc(OC)c(OC)c1C2)OCO4 (stereo unspecified)
Activity [1]: inactive | Activity [2]: inactive

c1ccc2c(c1)CC1c3cc4c(cc3CCN1C2)OCO4 (stereo unspecified)
Activity [1]: inactive | Activity [2]: inactive

COc1ccc2c(c1OC)C[N+]1(Cc3ccccc3)CCc3cc4c(cc3C1C2)OCO4 (stereo unspecified)
Activity [3]: 146 mg/dL | Activity [1]: Active | Activity [2]: inactive

COc1ccc2c[n+]3c(cc2c1)-c1cc2c(cc1CC3)OCO2
Activity [1]: inactive | Activity [2]: inactive

COc1ccc2cc3[n+](cc2c1O)CCc1cc2c(cc1-3)OCO2
Activity [3]: 12 mg/dL | Activity [1]: Active | Activity [2]: inactive

COc1ccc2cc3[n+](cc2c1)CCc1cc2c(cc1-3)OCO2
Activity [1]: inactive | Activity [2]: inactive

c1ccc(COc2ccc3c[n+]4c(cc3c2)-c2cc3c(cc2CC4)OCO3)cc1
Activity [1]: inactive | Activity [2]: inactive

COc1ccc2c(c1OC)C[N+]1([O-])CCc3cc4c(cc3C1C2)OCO4 (stereo unspecified)
Activity [3]: 23 mg/dL | Activity [1]: Active | Activity [2]: inactive

c1ccc2c[n+]3c(cc2c1)-c1cc2c(cc1CC3)OCO2
Activity [3]: 67 mg/dL | Activity [1]: Active | Activity [2]: inactive

COc1ccc2cc3[n+](cc2c1OC)CCc1cc(O)c(O)cc1-3
Activity [1]: inactive | Activity [2]: inactive

COc1ccc2cc3[n+](cc2c1OC)CCc1cc2c(cc1-3)OCO2.[Cl-] [BERBERINE CHLORIDE]
MIC [4]: 5 µg/mL | Activity [3]: 61 mg/dL | Activity [1]: Active

COc1cccc2cc3[n+](cc12)CCc1cc2c(cc1-3)OCO2
Activity [1]: inactive | Activity [2]: inactive
